Experimental data from patent US11419921B2, “Methods of treating neurological disorders” (EnClear Therapies, Inc., priority 2018, dated 2022).

Test system: (GR)10
Assay: (GR)10 digestion with immobilized proteases (NHS-activated agarose resin) in PBS
Format: biochemical
Conditions: normalized
Experimental: Protease solutions were prepared at 2 mg/mL in sterile PBS with calcium, magnesium and 200 μL ([…]) were applied to 100 μL of pre-washed NHS-activated agarose resin in 0.8 mL centrifuge columns. Reactions were left 1.5 hour at room temperature with end-to-end mixing, after which resins were washed with 12 resin volumes of PBS. Unreacted sites were blocked with 500 μL of 1M ethanolamine for 15 minutes at room temperature and resins were further washed with 24 resin volumes. Resins were stored at 4 degrees in 500 μL of PBS containing 0.05% sodium azide as preservative.
110 μL of 50 μM (GR)10 dipeptide repeats prepared in PBS were added to each immobilized protease and incubated 5 minutes at room temperature with end-to-end mixing. Columns were spun down 1 minute at 1,000 Xg to recover digested GR dipeptides. Columns were washed with 110 μL of PBS to increase (GR)10 recovery. This procedure was repeated with 60 minutes digestion time. 100 μL of each samples were transferred to a new tube and 5 μL of 10% TFA followed by 300 μL of Dilution Solution were added. The reaction mixtures were analyzed by LC/MS to determine the concentration of GR repeats of different lengths.

[1] = resin wash from 60 min reaction

Elastase: protease that cleaves at the carboxyl side of small hydrophobic amino acids; in Table 22 also immobilized on agarose resin
(GR)1 (Immobilized - 5 min reaction): 33.1 µM
(GR)2 (Immobilized - 5 min reaction): 4.8 µM
(GR)3 (Immobilized - 5 min reaction): 0.0 µM
(GR)4 (Immobilized - 5 min reaction): 0.0 µM
(GR)5 (Immobilized - 5 min reaction): 0.0 µM
(GR)6 (Immobilized - 5 min reaction): 0.0 µM
(GR)8 (Immobilized - 5 min reaction): 0.0 µM
(GR)10 (Immobilized - 5 min reaction): 0.0 µM
(GR)1 (immobilized - 60 min reaction): 48.1 µM
(GR)2 (immobilized - 60 min reaction): 0.0 µM
(GR)3 (immobilized - 60 min reaction): 0.0 µM
(GR)4 (immobilized - 60 min reaction): 0.0 µM
(GR)5 (immobilized - 60 min reaction): 0.0 µM
(GR)6 (immobilized - 60 min reaction): 0.0 µM
(GR)8 (immobilized - 60 min reaction): 0.0 µM
(GR)10 (immobilized - 60 min reaction): 0.0 µM
(GR)1 (resin wash from 5 min reaction): 13.8 µM
(GR)2 (resin wash from 5 min reaction): 0.0 µM
(GR)3 (resin wash from 5 min reaction): 0.0 µM
(GR)4 (resin wash from 5 min reaction): 0.0 µM
(GR)5 (resin wash from 5 min reaction): 0.0 µM
(GR)6 (resin wash from 5 min reaction): 0.0 µM
(GR)8 (resin wash from 5 min reaction): 0.0 µM
(GR)10 (resin wash from 5 min reaction): 0.0 µM
(GR)1 [1]: 18.5 µM
(GR)2 [1]: 0.0 µM
(GR)3 [1]: 0.0 µM
(GR)4 [1]: 0.0 µM
(GR)5 [1]: 0.0 µM
(GR)6 [1]: 0.0 µM
(GR)8 [1]: 0.0 µM
(GR)10 [1]: 0.0 µM
